Data reported in patent publication US6515124B2, “Dehydroamino acids” (Hoffman-La Roche Inc., priority 2000, dated 2003).

Experiments:
[1] = target: T1, LFA-1 binding to immobilized ICAM-1 (Homo sapiens, UniProt P05107+P20701); assay: LFA-1/ICAM-1 Protein-Protein Assay (solid-phase ELISA); details: 5dICAM-Ig coated plates, membrane-bound LFA-1 from transfected 293 cells
T1 construct: made in house; host or cells: transfected 293 cells (LFA-1)
Experimental: LFA-1/ICAM-1 Protein-Protein Assay
LFA-1/ICAM-1 antagonist activity, defined as the ability to block LFA-1 binding to immobilized ICAM-1, was quantitated using a solid-phase ELISA. Typically, fusion protein consisting of the entire extracellular domain of human ICAM-1 and the Fc domain of human IgG (5dICAM-Ig) was coated onto 96-well microtiter plates (0.15 μg in 100 μL PBS) overnight at 4° C. The plates were then blocked with 150 μL of 1% BSA/1 mM MnCl2/0.14 M NaCl/20 mM HEPES, pH 7.2 for 1 h at 37° C. and washed 3 times (150 μL each) with Wash Buffer (50 mM Tris, pH 7.4/100 mM NaCl/1 mM MnCl2/0.05% Tween 20). Stock solutions (100 μM in 100% DMSO) of test compounds were diluted 50 fold with 150 μL of Binding Buffer (0.05% BSA/0.05% Tween 20/1 mM MnCl2/0.14 M NaCl/20 mM HEPES, pH 7.2) plus 10% DMSO. A series of 1:4 dilutions were performed to achieve a concentration range of 0.12 nM-2 μM. Fifty μL per well of each dilution was added to the ICAM-1 coated plates, followed by 50 μL per well of membrane-bound LFA-1 (280 ng/mL in Binding Buffer) derived from transfected 293 cells. The plates were shaken vigorously for 1 min (room temperature) and gently for 2 h (37° C.). After incubation, the plates were washed 3 times (150 μL each) with Wash Buffer. Mouse anti-human integrin β2 monoclonal antibody was added (100 μL/well, 1 μg/ml in Binding Buffer) and allowed to incubate for 1 h (37° C.) with gentle agitation. The plates were then washed 3 times with Wash Buffer. HRP-conjugated goat anti-mouse IgG (100 μL/well, 1:1500 dilution in Binding Buffer) was added to each well, followed by incubation for 1 h (37° C.) and concluded by three washes (150 μL each) with Wash Buffer. TMB solution (100 μL per well) was added for color development (10 min). The reaction was stopped by the addition of 100 μL of 1M H3PO4 to each well. The plates were then read at 450 nm.

[2] = system: T lymphocyte proliferation (murine spleen cells); assay: Mixed Lymphocyte Reaction (MLR), one-way; assay type: cell-based, mice; details: C57B1/6 spleen cells with irradiated BALB/c spleen cells, tritiated thymidine incorporation, 3 days
Source text: Mixed Lymphocyte Reaction (MLR)
Admixture of murine spleen cells from two different inbred strains of mice induces proliferation of T lymphocytes. The magnitude of T cell proliferation depends on the extent of disparity in the major histocompatibility antigens between the two strains. Splenic T lymphocytes from both strains proliferate due to alloantigen recognition, a process for which the interaction of ICAM-1 on antigen-presenting cells with LFA-1 on lymphocytes is necessary. The ability of antagonists to inhibit T lymphocyte proliferation following recognition of alloantigens was assessed in a one-way MLR, where cells from one strain were irradiated to permit measurement of the proliferative response of cells from the other strain. Spleen cells were washed three times in tissue culture medium (TCM; see below). Fifty microliters of a spleen cell suspension (prepared at 10×10^6 cells/ml in TCM) obtained from C57B1/6 mice were added to an equal number of lethally-irradiated (2000 rads) spleen cells obtained from BALB/c mice in a 96-well U-bottom tissue culture plate (Costar, 3799). One hundred microliters of serial dilutions of antagonists or TCM were added to the spleen cell mixture. The total volume in each well was 200 μL. TCM was RPMI1640 containing 10% heat-inactivated fetal bovine serum, […] L-glutamine, 100 Units/ml each of penicillin and streptomycin and 5×10^−5 M 2-mercaptoethanol. Dilutions of antagonists were prepared in TCM. Plates were incubated in 5% CO2 for 3 days. On the third day, 0.5 μCi of tritiated thymidine (10 μCi/mL) was added to all the wells. Cells were harvested 6 h later on a 96-well plate harvester and the amount of tritiated thymidine incorporated was assessed in a liquid scintillation counter.

[3] = Mus musculus, T-lymphocyte, light or radiation study, 72 h

T1 sequence (P20701 26-1170): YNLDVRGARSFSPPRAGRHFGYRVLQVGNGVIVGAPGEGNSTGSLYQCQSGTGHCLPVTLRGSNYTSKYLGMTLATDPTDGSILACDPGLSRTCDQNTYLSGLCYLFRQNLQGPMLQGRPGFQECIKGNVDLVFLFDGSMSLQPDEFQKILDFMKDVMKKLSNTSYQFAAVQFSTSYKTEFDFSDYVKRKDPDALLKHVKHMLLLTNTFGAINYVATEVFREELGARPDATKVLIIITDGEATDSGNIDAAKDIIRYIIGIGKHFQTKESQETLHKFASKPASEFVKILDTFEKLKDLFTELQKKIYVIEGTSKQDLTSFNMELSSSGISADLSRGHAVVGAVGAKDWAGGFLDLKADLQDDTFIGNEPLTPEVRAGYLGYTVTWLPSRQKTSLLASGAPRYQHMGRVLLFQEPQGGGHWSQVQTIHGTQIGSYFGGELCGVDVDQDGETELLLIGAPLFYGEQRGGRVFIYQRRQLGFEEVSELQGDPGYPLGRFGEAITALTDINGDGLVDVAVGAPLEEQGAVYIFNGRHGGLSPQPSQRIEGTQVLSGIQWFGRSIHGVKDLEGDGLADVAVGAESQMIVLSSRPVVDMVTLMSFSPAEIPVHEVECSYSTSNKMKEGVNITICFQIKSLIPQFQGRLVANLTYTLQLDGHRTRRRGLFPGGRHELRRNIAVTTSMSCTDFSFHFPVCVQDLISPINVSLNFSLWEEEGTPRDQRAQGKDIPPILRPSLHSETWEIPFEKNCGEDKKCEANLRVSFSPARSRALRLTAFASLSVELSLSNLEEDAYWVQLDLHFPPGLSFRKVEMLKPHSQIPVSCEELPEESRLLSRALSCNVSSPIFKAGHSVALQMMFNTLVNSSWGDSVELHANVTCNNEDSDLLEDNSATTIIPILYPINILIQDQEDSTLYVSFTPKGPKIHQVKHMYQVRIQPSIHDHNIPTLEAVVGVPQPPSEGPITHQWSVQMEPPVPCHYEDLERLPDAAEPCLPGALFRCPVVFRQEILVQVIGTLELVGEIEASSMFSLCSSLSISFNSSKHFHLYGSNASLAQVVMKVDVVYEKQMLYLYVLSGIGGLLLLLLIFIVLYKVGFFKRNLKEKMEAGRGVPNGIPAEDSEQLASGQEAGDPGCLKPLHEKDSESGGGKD
T1 sequence (P05107 23-769): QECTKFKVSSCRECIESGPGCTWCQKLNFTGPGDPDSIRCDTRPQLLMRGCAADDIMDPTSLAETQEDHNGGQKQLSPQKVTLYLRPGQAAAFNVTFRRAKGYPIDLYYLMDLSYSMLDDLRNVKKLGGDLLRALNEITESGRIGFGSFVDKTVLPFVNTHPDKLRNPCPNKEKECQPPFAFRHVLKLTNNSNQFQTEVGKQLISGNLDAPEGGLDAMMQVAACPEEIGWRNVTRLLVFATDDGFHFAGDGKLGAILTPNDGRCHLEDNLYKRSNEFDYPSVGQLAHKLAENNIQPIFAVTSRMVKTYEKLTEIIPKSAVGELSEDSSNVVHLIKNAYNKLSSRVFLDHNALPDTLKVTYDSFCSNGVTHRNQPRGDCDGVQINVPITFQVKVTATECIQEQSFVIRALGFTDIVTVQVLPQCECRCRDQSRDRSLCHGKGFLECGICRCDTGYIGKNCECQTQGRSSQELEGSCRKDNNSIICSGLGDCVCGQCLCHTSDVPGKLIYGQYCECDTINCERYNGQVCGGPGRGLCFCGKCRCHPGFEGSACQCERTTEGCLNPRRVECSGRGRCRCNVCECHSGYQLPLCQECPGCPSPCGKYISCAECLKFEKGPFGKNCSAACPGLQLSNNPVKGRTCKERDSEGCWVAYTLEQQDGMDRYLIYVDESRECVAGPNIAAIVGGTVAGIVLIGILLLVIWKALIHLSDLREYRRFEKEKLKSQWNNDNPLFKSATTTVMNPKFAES

Row | SMILES | IC50 [1] [nM] | IC50 [2, 3] [nM] | other results
1 | Cc1noc(C)c1/C=C(\NC(=O)c1ccc(C(=O)NCc2cccc(O)c2)cc1Br)C(=O)O [Example 281] | 244 | 14500 | 
2 | Cc1nc(C(C)C)sc1/C=C(\NC(=O)c1ccc(C(=O)NCc2cccc(O)c2)cc1Cl)C(=O)O [Example 301, 2-[[2-Chloro-4-[[(3-hydroxybenzyl)amino]carbonyl]benzoyl]amino]-3-[2-(1-methylethyl)-4-methylthiazol-5-yl]propenoic Acid] | 3.03 | 4250 | 
3 | O=C(O)/C(=C/c1ccncc1)NC(=O)c1ccc(C(=O)NCc2cccc(O)c2)cc1Br [Example 280] | 5 | 860 | 
4 | Cc1nc(C)c(/C=C(\NC(=O)c2c(C)cc(C(=O)NCc3cc(F)cc(F)c3)cc2C)C(=O)O)s1 [Example 254] | 110 | 95000 | 
5 | Cc1nc(C)c(/C=C(\NC(=O)c2ccc(C(=O)NCc3cccc(N)c3)cc2Br)C(=O)O)s1 [Example 321] | 7.52 | 11500 | 
6 | O=C(O)/C(=C/c1ccc2[nH]nnc2c1)NC(=O)c1ccc(C(=O)NCc2cccc(O)c2)cc1Br [Example 285] |  | 235 | IC50 ([1]; disodium salt): 1.14 nM; IC50 ([1]; trifluoroacetate salt): 0.34 nM; IC50 ([2]; listed as 285^c): 190 nM
7 | Cc1cc(C(=O)NCc2cc(F)cc(F)c2)cc(C)c1C(=O)N/C(=C\c1[nH]cnc1C)C(=O)O [Example 250, (Z)-2-[[4-[[(3,5-Difluorobenzyl)amino]carbonyl]-2,6-dimethylbenzoyl]amino]-3-(4-methyl-1H-imidazol-5-yl)propenoic Acid] | 37 |  | 
8 | Cc1nc(C)c(/C=C(\NC(=O)c2ccc(C(=O)NCc3cccc(O)c3)cc2Br)C(=O)O)s1 [Example 258] | 2.33 | 2050 | IC50 ([1]; mono sodium salt): 2.01 nM; IC50 ([2]; listed as 258^b): 2740 nM
9 | Cc1cc(C(=O)N[C@H](C)c2cccc3ccccc23)cc(C)c1C(=O)N/C(=C\c1cnc2ccccc2c1)C(=O)O [Example 241] | 2.04 | 2600 | 
10 | O=C(O)/C(=C/c1cccc2ccccc12)NC(=O)c1ccc(C(=O)NCc2cccc(O)c2)cc1Br [Example 270] | 20.3 | 20000 | 
11 | O=C(O)/C(=C/c1ccccc1)NC(=O)c1ccc(C(=O)NCc2cccc(O)c2)cc1Br [Example 269] | 4.31 | 2200 | 
12 | NS(=O)(=O)c1ccc(/C=C(\NC(=O)c2ccc(C(=O)NCc3cccc(O)c3)cc2Cl)C(=O)O)cc1 [Example 323, (Z)-3-(4-Aminosulfonylphenyl)-2-[[2-chloro-4-[[(3-hydroxybenzyl)amino]carbonyl]benzoyl]amino]propenoic Acid] | 0.84 | 230 | 
13 | O=C(O)/C(=C/c1cc2c(cc1Cl)OCO2)NC(=O)c1ccc(C(=O)NCc2cccc(O)c2)cc1Cl [Example 315] | 1.89 | 2500 | 
14 | CN(C)c1ncc(/C=C(\NC(=O)c2ccc(C(=O)NCc3cccc(O)c3)cc2Br)C(=O)O)s1 [Example 260] | 0.77 | 3000 | 
15 | Cn1c(/C=C(\NC(=O)c2ccc(C(=O)NCc3cccc(O)c3)cc2Br)C(=O)O)nc2ccccc21 [Example 288] | 201 |  | 
16 | O=C(O)/C(=C/c1nc(C(F)(F)F)cs1)NC(=O)c1ccc(C(=O)NCc2cccc(O)c2)cc1Br [Example 257] | 101 |  | 
17 | O=C(O)/C(=C/c1ccoc1)NC(=O)c1ccc(C(=O)NCc2cccc(O)c2)cc1Br [Example 243] | 13.2 |  | 
18 | CC(C)c1csc(/C=C(\NC(=O)c2ccc(C(=O)NCc3cccc(O)c3)cc2Br)C(=O)O)n1 [Example 256] | 279 |  | 
19 | COc1ncc(/C=C(\NC(=O)c2ccc(C(=O)NCc3cccc(O)c3)cc2Br)C(=O)O)c(OC)n1 [Example 284] | 12.6 |  | 
20 | O=C(O)/C(=C/c1cccs1)NC(=O)c1ccc(C(=O)NCc2cccc(O)c2)cc1Br [Example 271] | 33 |  | 

Row | SMILES | IC50 [1] [nM] | IC50 [2, 3] [nM] | other results
21 | Cc1cc(C(=O)NCc2cccc(O)c2)cc(C)c1C(=O)N/C(=C\c1ccc2[nH]nnc2c1)C(=O)O [Example 326, (Z)-3-(1H-Benzotriazol-5-yl)-2-[[4-[[(3-hydroxybenzyl)amino]carbonyl]-2,6-dimethylbenzoyl]amino]propenoic Acid] | 1.12 |  | 
22 | CCc1nc(C(C)C)c(/C=C(\NC(=O)c2ccc(C(=O)NCc3cccc(O)c3)cc2Cl)C(=O)O)s1 [Example 303, (Z)-2-[[2-Chloro-4-[[3-(3-hydroxybenzyl)amino]carbonyl]benzoyl]amino]-3-[2-ethyl-4-(1-methylethyl)thiazol-5-yl]propenoic Acid] | 190 |  | 
23 | O=C(O)/C(=C/c1cnnc2ccccc12)NC(=O)c1ccc(C(=O)NCc2cccc(O)c2)cc1Br [Example 265] | 124 |  | 
24 | O=C(O)/C(=C/C1CCNCC1)NC(=O)c1ccc(C(=O)NCc2cccc(O)c2)cc1Br [Example 319] | 72 |  | 
25 | Cc1cc(C(=O)N[C@H](C)c2cccc3ccccc23)cc(C)c1C(=O)N/C(=C\c1ccc2[nH]nnc2c1)C(=O)O [Example 239] | 2.15 |  | 
26 | C[C@@H](NC(=O)c1ccc(C(=O)N/C(=C\c2cccs2)C(=O)O)c(Cl)c1)c1cccc2ccccc12 [Example 327] | 20.4 |  | 
27 | O=C(O)/C(=C/c1ccccn1)NC(=O)c1ccc(C(=O)NCc2cccc3[nH]ccc23)cc1Cl [Example 310] | 56.1 |  | 
28 | O=C(O)/C(=C/c1cnc2ccccc2c1)NC(=O)c1ccc(C(=O)NCc2ccc3cc[nH]c3c2)cc1Cl [Example 324, (Z)-2-[[2-Chloro-4-[[[(1N-indol-6-yl)methyl]amino]carbonyl]benzoyl]amino]-3-(quinolin-3-yl)propenoic Acid] | 50.8 |  | 
29 | O=C(O)/C(=C/C1CCCNC1)NC(=O)c1ccc(C(=O)NCc2cccc(O)c2)cc1Br (racemic) [Example 318] | 171 |  | 
30 | C[C@@H](NC(=O)c1cc(Cl)c(C(=O)N/C(=C\c2ccc3[nH]nnc3c2)C(=O)O)c(Cl)c1)c1cccc2ccccc12 [Example 242] | 22 |  | 
31 | Cc1nc(C(C)C)c(/C=C(\NC(=O)c2ccc(C(=O)NCc3cccc(O)c3)cc2Br)C(=O)O)s1 [Example 259] | 8.14 |  | 
32 | O=C(O)/C(=C/c1ccsc1)NC(=O)c1ccc(C(=O)NCc2cccc(O)c2)cc1Br [Example 313] | 8.2 |  | 
33 | O=C(O)/C(=C/c1cccs1)NC(=O)c1ccc(C(=O)NCc2cccc3[nH]ccc23)cc1Cl [Example 308] | 56.3 |  | 
34 | Cc1cc(C(=O)N[C@H](C)c2cccc3ccccc23)cc(C)c1C(=O)N/C(=C\c1ccncc1)C(=O)O [Example 238] | 16.7 |  | 
35 | O=C(O)/C(=C/c1nc2ccccc2s1)NC(=O)c1ccc(C(=O)NCc2cccc(O)c2)cc1Br [Example 276] | 50.6 |  | 
36 | O=C(O)/C(=C/c1cnc(-c2cccs2)s1)NC(=O)c1ccc(C(=O)NCc2cccc(O)c2)cc1Br [Example 262] | 123 |  | 
37 | O=C(O)/C(=C/c1ccc2ccccc2n1)NC(=O)c1ccc(C(=O)NCc2cccc(O)c2)cc1Br [Example 275] | 42.5 |  | 
38 | CC/C=C(\NC(=O)c1ccc(C(=O)NCc2cccc(O)c2)cc1Br)C(=O)O [Example 289] | 40.9 |  | 
39 | O=C(O)/C(=C/CC1CCCCN1)NC(=O)c1ccc(C(=O)NCc2cccc(O)c2)cc1Br (racemic) [Example 320] | 140 |  | 
